Molecules are shown by their SMILES.

Usually IC50 stands for the midpoint of a concentration-inhibition curve.

The target in this test is α4β1 (Homo sapiens, UniProt P05556+P13612). The test is described as follows: α4β1 integrin inhibition, IC50. It is filed as binding. Conditions: read-out: α4β1 IC50.
α4β1, sequence (P13612 34-1032): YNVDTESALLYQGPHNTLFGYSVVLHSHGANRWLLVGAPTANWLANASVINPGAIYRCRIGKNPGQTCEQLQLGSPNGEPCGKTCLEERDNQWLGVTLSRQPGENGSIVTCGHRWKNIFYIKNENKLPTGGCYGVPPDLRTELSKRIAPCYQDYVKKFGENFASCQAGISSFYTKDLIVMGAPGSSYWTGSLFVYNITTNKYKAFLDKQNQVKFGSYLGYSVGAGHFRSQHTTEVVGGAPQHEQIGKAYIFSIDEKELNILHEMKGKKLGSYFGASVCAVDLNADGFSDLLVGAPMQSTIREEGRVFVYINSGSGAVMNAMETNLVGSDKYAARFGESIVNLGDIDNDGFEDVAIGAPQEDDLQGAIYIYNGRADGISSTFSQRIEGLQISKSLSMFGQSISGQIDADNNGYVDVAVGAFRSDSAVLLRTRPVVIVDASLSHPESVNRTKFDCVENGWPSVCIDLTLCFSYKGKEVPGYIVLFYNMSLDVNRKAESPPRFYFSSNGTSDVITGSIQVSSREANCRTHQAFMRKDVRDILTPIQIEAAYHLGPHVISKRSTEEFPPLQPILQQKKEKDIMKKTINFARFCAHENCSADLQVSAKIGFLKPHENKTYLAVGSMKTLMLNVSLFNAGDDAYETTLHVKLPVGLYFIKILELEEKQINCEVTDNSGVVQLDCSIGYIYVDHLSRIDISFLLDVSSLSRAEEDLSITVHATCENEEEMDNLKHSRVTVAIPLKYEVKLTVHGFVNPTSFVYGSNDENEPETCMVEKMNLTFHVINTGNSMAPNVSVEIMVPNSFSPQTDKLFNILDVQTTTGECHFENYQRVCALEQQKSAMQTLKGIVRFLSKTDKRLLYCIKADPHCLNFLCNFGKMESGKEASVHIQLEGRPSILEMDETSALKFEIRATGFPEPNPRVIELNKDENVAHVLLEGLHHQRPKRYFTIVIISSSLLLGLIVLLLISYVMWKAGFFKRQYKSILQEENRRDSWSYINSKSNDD
α4β1, sequence (P05556 21-798): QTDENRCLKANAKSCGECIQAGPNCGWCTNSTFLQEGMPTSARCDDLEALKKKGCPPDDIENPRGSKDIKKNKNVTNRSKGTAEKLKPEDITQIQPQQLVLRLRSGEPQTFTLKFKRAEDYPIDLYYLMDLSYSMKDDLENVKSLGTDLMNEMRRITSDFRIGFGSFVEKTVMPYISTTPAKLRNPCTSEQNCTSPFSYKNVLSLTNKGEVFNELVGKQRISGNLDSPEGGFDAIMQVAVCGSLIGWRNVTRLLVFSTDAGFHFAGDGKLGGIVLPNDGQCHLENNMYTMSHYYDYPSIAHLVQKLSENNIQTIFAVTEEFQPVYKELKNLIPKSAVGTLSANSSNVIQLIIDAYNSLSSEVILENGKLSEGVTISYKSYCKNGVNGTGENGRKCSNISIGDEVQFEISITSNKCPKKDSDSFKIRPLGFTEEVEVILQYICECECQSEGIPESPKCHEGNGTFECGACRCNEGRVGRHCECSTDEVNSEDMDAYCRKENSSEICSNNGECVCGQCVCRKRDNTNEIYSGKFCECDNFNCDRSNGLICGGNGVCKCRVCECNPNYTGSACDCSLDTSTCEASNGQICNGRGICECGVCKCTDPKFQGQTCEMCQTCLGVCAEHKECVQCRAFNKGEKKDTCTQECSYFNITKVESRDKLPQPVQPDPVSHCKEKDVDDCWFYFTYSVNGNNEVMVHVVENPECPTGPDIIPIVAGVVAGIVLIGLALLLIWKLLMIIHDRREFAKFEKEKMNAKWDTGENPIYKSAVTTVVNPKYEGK

For the molecule `COc1cccc(-c2cccc([C@H](CC(=O)O)NC(=O)Nc3c(O)c(C)cn(C)c3=O)c2)c1` [1-460, sodium (S)-3-(3-(1,5-dimethyl-4-oxido-2-oxo-1,2-dihydropyridin-3-yl)ureido)-3-(3′-methoxybiphenyl-3-yl)propanoate], the IC50 is less than 0.2 µM.
The result for `Cn1ccc(O)c(NC(=O)N[C@@H](CC(=O)O)c2cccc(-c3ccccc3)n2)c1=O` [1-571, sodium (S)-3-(3-(1-methyl-4-oxido-2-oxo-1,2-dihydropyridin-3-yl)ureido)-3-(6-phenylpyridin-2-yl)propanoate] reads less than 0.02 µM; that for `Cn1ccc(O)c(NC(=O)N[C@@H](CC(=O)O)c2cccc(-c3ccccc3)c2)c1=O` [1-505, sodium (S)-3-(biphenyl-3-yl)-3-(3-(1-methyl-4-oxido-2-oxo-1,2-dihydropyridin-3-yl)ureido)propanoate], less than 0.02 µM.
`Cc1ccc(C)c(-c2cccc([C@H](CC(=O)O)NC(=O)Nc3c(O)c(C)cn(C)c3=O)c2)c1` [1-459, sodium (S)-3-(3-(1,5-dimethyl-4-oxido-2-oxo-1,2-dihydropyridin-3-yl)ureido)-3-(2′,5′-dimethylbiphenyl-3-yl)propanoate]: the IC50 is less than 0.02 µM.
The result for `CC(=O)c1cccc(-c2cccc(C(CC(=O)O)NC(=O)Nc3c(O)c(C)cn(C)c3=O)c2)c1` (centres unmarked) [1-626, sodium 3-(3′-acetylbiphenyl-3-yl)-3-(3-(1,5-dimethyl-4-oxido-2-oxo-1,2-dihydropyridin-3-yl)ureido)propanoate] reads less than 0.02 µM.
As for `Cc1ccccc1-c1cccc([C@H](CC(=O)O)NC(=O)Nc2c(O)ccn(C)c2=O)c1` [1-598, sodium (S)-3-(3-(1-methyl-4-oxido-2-oxo-1,2-dihydropyridin-3-yl)ureido)-3-(2′-methylbiphenyl-3-yl)propanoate], the IC50 is less than 0.02 µM.
The result for `COc1ccc(-c2cccc([C@H](CC(=O)O)NC(=O)Nc3c(O)ccn(C)c3=O)c2)cn1` [1-508, sodium (S)-3-(3-(6-methoxypyridin-3-yl)phenyl)-3-(3-(1-methyl-4-oxido-2-oxo-1,2-dihydropyridin-3-yl)ureido)propanoate] reads less than 0.02 µM; that for `Cc1cccc(C)c1-c1ccc([C@H](CC(=O)O)NC(=O)Nc2c(O)cc(C)n(C)c2=O)cc1` [1-638, sodium (S)-3-(3-(1,6-dimethyl-4-oxido-2-oxo-1,2-dihydropyridin-3-yl)ureido)-3-(2′,6′-dimethylbiphenyl-4-yl)propanoate], less than 0.2 µM; that for `Cc1cn(C)c(=O)c(NC(=O)NC(CC(=O)O)c2cccc(-c3ccc(Cl)cc3)c2)c1O` (centres unmarked) [1-471, sodium 3-(4′-chlorobiphenyl-3-yl)-3-(3-(1,5-dimethyl-4-oxido-2-oxo-1,2-dihydropyridin-3-yl)ureido)propanoate], less than 0.2 µM.
As to `Cc1cc(O)c(NC(=O)N[C@@H](CC(=O)O)c2ccc(-c3ccc(F)cc3F)cc2)c(=O)n1C` [1-622, sodium (S)-3-(2′,4′-difluorobiphenyl-4-yl)-3-(3-(1,6-dimethyl-4-oxido-2-oxo-1,2-dihydropyridin-3-yl)ureido)propanoate], the IC50 was less than 0.02 µM.
The result for `Cn1ccc(O)c(NC(=O)N[C@@H](CC(=O)O)c2cc(OC(F)(F)F)cc(-c3ccccc3)c2)c1=O` [1-615, sodium (S)-3-(3-(1-methyl-4-oxido-2-oxo-1,2-dihydropyridin-3-yl)ureido)-3-(5-(trifluoromethoxy)biphenyl-3-yl)propanoate] reads less than 0.02 µM; that for `Cc1cccc(C)c1-c1ccc([C@H](CC(=O)O)NC(=O)Nc2c(O)cc(C)n(C)c2=O)s1` [1-588, sodium (S)-3-(3-(1,6-dimethyl-4-oxido-2-oxo-1,2-dihydropyridin-3-yl)ureido)-3-(5-(2,6-dimethylphenyl)thiophen-2-yl)propanoate], less than 0.02 µM; that for `Cc1cn(C)c(=O)c(NC(=O)NC(CC(=O)O)c2cccc(-c3cc(Cl)cc(Cl)c3)c2)c1O` (centres unmarked) [1-486, sodium 3-(3′,5′-dichlorobiphenyl-3-yl)-3-(3-(1,5-dimethyl-4-oxido-2-oxo-1,2-dihydropyridin-3-yl)ureido)propanoate], less than 0.2 µM.
The result for `Cc1cc(O)c(NC(=O)N[C@@H](CC(=O)O)c2cccc(-c3cccc(Cl)c3)c2)c(=O)n1C` [1-556, sodium (S)-3-(3′-chlorobiphenyl-3-yl)-3-(3-(1,6-dimethyl-4-oxido-2-oxo-1,2-dihydropyridin-3-yl)ureido)propanoate] reads less than 0.02 µM; that for `Cn1ccc(O)c(NC(=O)N[C@@H](CC(=O)O)c2cccc(-c3cnccn3)c2)c1=O` [15-2, sodium (S)-3-(3-(1-methyl-4-oxido-2-oxo-1,2-dihydropyridin-3-yl)ureido)-3-(3-(pyrazin-2-yl)phenyl)propanoate], less than 0.02 µM.
The result for `Cn1ccc(O)c(NC(=O)N[C@@H](CC(=O)O)c2ccc(-c3cccc(OC(F)(F)F)c3)s2)c1=O` [1-601, sodium (S)-3-(3-(1-methyl-4-oxido-2-oxo-1,2-dihydropyridin-3-yl)ureido)-3-(5-(3-(trifluoromethoxy)phenyl)thiophen-2-yl)propanoate] reads less than 0.02 µM.
Consider `Cn1ccc(O)c(NC(=O)N[C@@H](CC(=O)O)c2cccc(-c3cccc(Cl)c3)c2)c1=O` [1-506, sodium (S)-3-(3′-chlorobiphenyl-3-yl)-3-(3-(1-methyl-4-oxido-2-oxo-1,2-dihydropyridin-3-yl)ureido)propanoate], for which the 50% inhibitory concentration (IC50) was less than 0.02 µM.
To `COc1ccc([C@H](CC(=O)O)NC(=O)Nc2c(O)ccn(C)c2=O)cc1-c1ccc(F)cc1F` [1-519, sodium (S)-3-(2′,4′-difluoro-6-methoxybiphenyl-3-yl)-3-(3-(1-methyl-4-oxido-2-oxo-1,2-dihydropyridin-3-yl)ureido)propanoate] belongs less than 0.02 µM; to `COc1cccc(-c2cc([C@H](CC(=O)O)NC(=O)Nc3c(O)cc(C)n(C)c3=O)ccc2OC(F)(F)F)c1` [1-635, sodium (S)-3-(3-(1,6-dimethyl-4-oxido-2-oxo-1,2-dihydropyridin-3-yl)ureido)-3-(3′-methoxy-6-(trifluoromethoxy)biphenyl-3-yl)propanoate], less than 0.02 µM.
The result for `Cc1ccc([C@H](CC(=O)O)NC(=O)Nc2c(O)ccn(C)c2=O)cc1-c1cccc(Cl)c1` [1-555, sodium (S)-3-(3′-chloro-6-methylbiphenyl-3-yl)-3-(3-(1-methyl-4-oxido-2-oxo-1,2-dihydropyridin-3-yl)ureido)propanoate] reads less than 0.02 µM.
To `COc1ccc(C)c(-c2cccc([C@H](CC(=O)O)NC(=O)Nc3c(O)c(C)cn(C)c3=O)c2)c1` [1-490, sodium (S)-3-(3-(1,5-dimethyl-4-oxido-2-oxo-1,2-dihydropyridin-3-yl)ureido)-3-(5′-methoxy-2′-methylbiphenyl-3-yl)propanoate] belongs less than 0.2 µM; to `Cc1cn(C)c(=O)c(NC(=O)N[C@@H](CC(=O)O)c2cccc(-c3cccnc3)c2)c1O` [1-452, sodium (S)-3-(3-(1,5-dimethyl-4-oxido-2-oxo-1,2-dihydropyridin-3-yl)ureido)-3-(3-(pyridin-3-yl)phenyl)propanoate], less than 0.2 µM.
On to `Cn1ccc(O)c(NC(=O)N[C@@H](CC(=O)O)c2cncc(-c3ccccc3)c2)c1=O` [1-641, sodium (S)-3-(3-(1-methyl-4-oxido-2-oxo-1,2-dihydropyridin-3-yl)ureido)-3-(5-phenylpyridin-3-yl)propanoate], for which the IC50 was less than 0.02 µM.
The result for `Cn1ccc(O)c(NC(=O)N[C@@H](CC(=O)O)c2cc(-c3cccc(Cl)c3)cs2)c1=O` [1-530, sodium (S)-3-(4-(3-chlorophenyl)thiophen-2-yl)-3-(3-(1-methyl-4-oxido-2-oxo-1,2-dihydropyridin-3-yl)ureido)propanoate] reads less than 0.02 µM; that for `COc1cccc(-c2ccc(F)c([C@H](CC(=O)O)NC(=O)Nc3c(O)cc(C)n(C)c3=O)c2)c1` [1-603, sodium (S)-3-(3-(1,6-dimethyl-4-oxido-2-oxo-1,2-dihydropyridin-3-yl)ureido)-3-(4-fluoro-3′-methoxybiphenyl-3-yl)propanoate], less than 0.02 µM; that for `Cn1ccc(O)c(NC(=O)N[C@@H](CC(=O)O)c2cccc(-n3cccc3)c2)c1=O` [1-507, sodium (S)-3-(3-(1H-pyrrol-1-yl)phenyl)-3-(3-(1-methyl-4-oxido-2-oxo-1,2-dihydropyridin-3-yl)ureido)propanoate], less than 0.02 µM.
As to `Cc1cn(C)c(=O)c(NC(=O)NC(CC(=O)O)c2cccc(-c3ccc(Cl)c(Cl)c3)c2)c1O` (centres unmarked) [1-481, sodium 3-(3′,4′-dichlorobiphenyl-3-yl)-3-(3-(1,5-dimethyl-4-oxido-2-oxo-1,2-dihydropyridin-3-yl)ureido)propanoate], the IC50 is less than 0.2 µM.
The result for `COc1cccc(-c2cc([C@H](CC(=O)O)NC(=O)Nc3c(O)cc(C)n(C)c3=O)ccc2C)c1` [1-569, sodium (S)-3-(3-(1,6-dimethyl-4-oxido-2-oxo-1,2-dihydropyridin-3-yl)ureido)-3-(3′-methoxy-6-methylbiphenyl-3-yl)propanoate] reads less than 0.02 µM.
The result for `Cn1ccc(O)c(NC(=O)N[C@@H](CC(=O)O)c2ccc(-c3cccc(F)c3)s2)c1=O` [1-620, sodium (S)-3-(5-(3-fluorophenyl)thiophen-2-yl)-3-(3-(1-methyl-4-oxido-2-oxo-1,2-dihydropyridin-3-yl)ureido)propanoate] reads less than 0.2 µM; that for `Cc1cc(O)c(NC(=O)N[C@@H](CC(=O)O)c2cc(-c3ccc(F)cc3F)ccc2F)c(=O)n1C` [1-592, sodium (S)-3-(3-(1,6-dimethyl-4-oxido-2-oxo-1,2-dihydropyridin-3-yl)ureido)-3-(2′,4,4′-trifluorobiphenyl-3-yl)propanoate], less than 0.02 µM; that for `COc1cccc(-c2ccc(F)c([C@H](CC(=O)O)NC(=O)Nc3c(O)ccn(C)c3=O)c2)c1` [1-593, sodium (S)-3-(4-fluoro-3′-methoxybiphenyl-3-yl)-3-(3-(1-methyl-4-oxido-2-oxo-1,2-dihydropyridin-3-yl)ureido)propanoate], less than 0.02 µM.
To `Cc1cccc(C)c1-c1ccc([C@H](CC(=O)O)NC(=O)Nc2c(O)ccn(C)c2=O)s1` [1-587, sodium (S)-3-(5-(2,6-dimethylphenyl)thiophen-2-yl)-3-(3-(1-methyl-4-oxido-2-oxo-1,2-dihydropyridin-3-yl)ureido)propanoate] belongs less than 0.02 µM.
